Experimental findings from PubChem BioAssay AID179 (DTP/NCI, 2004) are described below.

The structures appear in SMILES notation. Activity calls are given as the source filed them.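 The calls were made as follows: active = compounds giving half or more protection of infected cells from virus-caused growth loss, again on retest; inactive = the rest.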

The experiment has as its system CEM cells HIV-1 protection, formazan growth assay. The experiment in a line: NCI AIDS Antiviral Assay. As to conditions: for IC50: measured here: growth of uninfected CEM cells. In a few lines: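 Protection of CEM cells against HIV-1 measured as cell growth via soluble formazan read-out, with five concentrations tested on both infected and uninfected cells; failure to protect may reflect toxicity.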

What is called EC50 is the concentration giving half of the maximal effect. As usually defined, the IC50 is the concentration at which inhibition is half-maximal. Higher therefore signals lower potency. As for `CC1=NN2C(c3ccc([N+](=O)[O-])cc3)=CSC2=NC(C)(C)C1`, the EC50 is greater than 158 µM and the IC50 was greater than 158 µM.

Turning to `COC1(C)C=NCC(C)(C)NC(=O)C(C)(OC)C=NCC(C)(C)NC1=O` (centres undefined), the EC50 was greater than 14.1 µM and the IC50 is greater than 14.1 µM.

In the case of `CCOC(=O)c1oc2cc(O)ccc2c(=O)c1-c1ccc(OC)c(OC)c1`, the EC50 is greater than 200 µM and the 50% inhibitory concentration (IC50) is 51.3 µM.

For `O=C(CCc1ccc(O)cc1)c1c(O)cc(O)cc1OC1OC(CO)C(O)C(O)C1O` (centres undefined), the EC50 is greater than 200 µM and the IC50 was greater than 200 µM.

In the case of `CC[C@@]1(OC(=O)CN(C)C)C(=O)OCc2c1cc1n(c2=O)Cc2cc3ccccc3nc2-1`, the EC50 is greater than 10 µM and the concentration for half-maximal inhibition (IC50) was 0.0229 µM.

Take `Cc1cc(Cl)ccc1NC(=O)/C(Cc1nc2ccc(C(=O)c3ccccc3)cc2[nH]c1=O)=N/NC(=O)c1ccncc1`: the EC50 was greater than 224 µM and the half-inhibitory concentration (IC50) was determined as 75.9 µM.

Regarding `O=C1C2CC3OC3CC2C(=O)N1CN1C(=O)C2CC3OC3CC2C1=O` (centres undefined), the EC50 was greater than 200 µM and the IC50 was greater than 200 µM.

Turning to `CSC1=NNC(SC)=NN1`, the EC50 is greater than 200 µM and the IC50 stood at 0.708 µM.

Regarding `Cc1n(CC(=O)c2ccccc2)nc2sc(N)n[n+]12`, the EC50 was greater than 200 µM and the IC50 turned out to be 123 µM.

For the compound `O=C(N/C(=C\c1cccc([N+](=O)[O-])c1)c1nc2ccc([N+](=O)[O-])cc2[nH]1)c1ccccc1`, the result was inactive.

Regarding `CC(=O)/C(=C/c1cccc(F)c1)C(=O)c1ccccc1`, the EC50 was greater than 19.5 µM and the IC50 was greater than 19.5 µM.

`CC(=O)c1sc2c(c1OC(=O)c1ccc(Cl)cc1)c(=O)n(-c1ccccc1)c(=S)n2-c1ccccc1`: the EC50 is greater than 200 µM and the concentration for half-maximal inhibition (IC50) is 0.776 µM.

For `O=S(=O)(F)c1ccc(C[P+](c2ccccc2)(c2ccccc2)c2ccccc2)c(Cl)c1`, the EC50 was greater than 200 µM and the half-inhibitory concentration (IC50) stood at 45.7 µM.

Turning to `ClCC1(CCl)COC1`, the EC50 is greater than 1620 µM and the 50% inhibitory concentration (IC50) was greater than 1620 µM.

On to `COc1ccc2oc(C(=O)O)c3c2c1CCC3`, for which the result was inactive.

Turning to `CN1C2=CC=CC=CC2=[N+](C)C1C(=C=[N-])C#N` (centres undefined), the EC50 is greater than 363 µM and the IC50 worked out at 245 µM.

Regarding `CC(=O)OC1CC2C(=O)C(=O)C1(C)C2(C)C` (centres undefined), the EC50 was greater than 200 µM and the IC50 was greater than 200 µM.

Turning to `CC(C)(C)OC(=O)N(CCCCNC(=O)OCc1ccccc1)CCCNC(=O)OCc1ccccc1`, the EC50 is greater than 200 µM and the IC50 worked out at 4.47 µM.

In the case of `C[C@]12CC[C@H]3[C@@H](CCC4=CC(=O)[C@H](Br)C[C@@]43C)[C@@H]1CC[C@@H]2C(=O)CBr`, the EC50 was greater than 2 µM and the IC50 was 0.316 µM.

Turning to `CCOC(=O)/C=C/CCC(C)(C)COC(C)=O`, the outcome was inactive.

As for `CC(=O)OCc1cccc(O)c1C(=O)CCC=C(C)C`, the EC50 was greater than 200 µM and the IC50 was 148 µM.

With `CC(=O)O[C@@H]1CC(C)C2CC2C2=C(C(O)OC2O)[C@@H]1C(C)CCC=C(C)C` (some centres undefined), the EC50 was greater than 69.2 µM and the IC50 was 58.9 µM.

With `Cc1nc2nn(Cc3ccccc3)cc2c(=O)o1`, the EC50 was greater than 1020 µM and the 50% inhibitory concentration (IC50) was found to be 57.5 µM.

Consider `O=c1ccn(/C=C(\c2ccccc2)S(=O)Cc2ccccc2)c(=S)[nH]1` (centres undefined), for which the result was inactive.

As for `O=C1CSC(/C(=C/c2ccccc2)c2nc3ccccc3[nH]2)=N1`, the EC50 is 21.9 µM and the half-inhibitory concentration (IC50) was 22.4 µM.

Turning to `COc1cc2c3c(c1OCc1ccccc1)NCCC3NCC2` (centres undefined), the outcome was inactive.

With `CNC(=O)NC1ON=C(c2ccccc2)C1C(=O)NC` (centres undefined), the EC50 was greater than 200 µM and the half-inhibitory concentration (IC50) was found to be 182 µM.

As to `CSC1=Nc2ccccc2N=C(c2ccc(Cl)cc2)C1`, the EC50 was greater than 12.6 µM and the IC50 is greater than 12.6 µM.

`CCOC(=O)CC1=N/C(=N/C(=N)N[N+](=O)[O-])SC1`: the outcome was inactive.

As to `O=C(/C=C(\O)C(=O)O)/C=C(\O)c1ccccc1Cl`, the concentration for a half-maximal effect (EC50) is 389 µM and the IC50 turned out to be 589 µM.
